Test results as given in US8299083B2, “PDE5 inhibitor compositions and methods for treating cardiac indications” (The Johns Hopkins University, priority 2004, dated 2012).
Several values for one entry are separate records, joined by “and”; a condition that tells them apart may be missing. Identical values can stand only once.

What was measured:
[1] = tested on: isolated adult murine myocytes; assay: Isoproterenol-stimulated contraction of isolated adult cardiac myocytes; type: cell-based, mouse; settings: ODQ plus sildenafil plus ISO
Method: Louis, Mo.) for 6-7 min. Ventricles were gently chopped, filtered (150μ mesh), centrifuged (500 RPM×1 min), and rinsed in Tyrode's solution with increasing calcium (final 1.8 mM Ca^2+). Cells were incubated with 5 μM Indo-1 AM (Molecular Probes), rinsed, and studied at 27° C. by field stimulation in an inverted fluorescence microscope (Diaphot 200; Nikon, Inc). Sarcomere length (IonOptix, MA) and whole cell calcium transients were measured.

[2] = tested on: myocardial cGMP; assay: Myocardial cyclic nucleotide levels; type: in vivo, mouse; settings: for whole myocardial cGMP: acute intravenous administration
From the text: Hearts were washed in ice-cold PBS, homogenized in 6% trichloroacetic acid, centrifuged and extracted with water-saturated ether. The aqueous layer was transferred, vacuum dried, and the pellet resuspended in sodium acetate buffer for cAMP and cGMP enzyme immunoassay (Amersham Pharmacia Biotech, Buckinghamshire, UK).

[3] = tested on: C57bl6 mice, isoproterenol-stimulated heart; assay: Acute isoproterenol-stimulated contractility in intact mice (pressure-volume relations); type: in vivo, mouse; settings: acute intravenous administration
Method: Isoproterenol (ISO: 20 ng/kg/minutes i.v.×5 min) with or without PDE5A inhibitor was given to anesthetized intact mice, and in vivo heart function assessed by pressure-volume relations at a fixed atrial pacing rate of 600-650 min^−1. Data were measured at baseline, with ISO, re-baseline, PDE5A-inhibition, and PDE5A inhibition+ISO. The ISO-only response was highly reproducible.

[4] = human, cited from earlier work
[5] = tested on: total cGMP-esterase activity; assay: cGMP-esterase (low Km cGMP phosphodiesterase) activity of heart and isolated myocytes; type: biochemical, mouse
[6] = tested on: PKG-1; assay: PKG-1 activity in isolated adult myocytes; type: cell-based, mouse
Method: After 10 min, cells were lysed and PKG-1 activity determined.

[7] = tested on: fetal gene expression; assay: Cardiac fetal gene expression (RNA dot blot) in TAC hearts; type: in vivo, mouse; settings: 3 wk TAC
Method: RNA samples were prepared from snap-frozen hearts using a ready-to-use reagent for the isolation of total RNA TRIZOL reagent (Life Technology, Gaithersburg, Md.) according to the manufacturer's protocol. RNA dot-blot analysis was performed using a published protocol with a set of oligonucleotide probes^59. Data are shown normalized to GAPDH measured for each respective sample.

[8] = tested on: C57BL/6 mice, pressure overload by transverse aortic constriction; assay: TAC-induced cardiac hypertrophy, remodeling and fibrosis (heart weight/tibia length, histology); type: in vivo, mouse; settings: TAC mice, concurrent oral treatment
From the text: TAC induced marked heart chamber and cellular hypertrophy (+100% by 3-weeks) that progressed to chamber dilation with reduced fractional shortening after 9 weeks. […] TAC induced a time-dependent increase in myocardial fibrosis and myocyte hypertrophy and both were suppressed by PDE5A inhibition (FIG. 1C, e.g. 67% reduction in fibrosis in 9-week hearts, p<0.0001).
(§1) Pressure overload was produced by transverse aortic constriction.
Hearts were fixed with 10% formalin overnight, then embedded in paraffin, sectioned at 5 μm thickness and stained with PAS methenamine. Cardiomyocyte diameter and interstitial collagen fraction were determined using computer-assisted image analysis (Adobe Photoshop 5.0, NIH Image J), with the observer blinded as to tissue source. At least 4-5 different hearts, with five separate fields of cells (total 50-70 cells for each heart) were quantified for cellular analysis.

[9] = target: purified PDE5A (Homo sapiens, UniProt O76074); settings: cited from earlier work
[10] = tested on: ex vivo vascular rings; settings: cited from earlier work
[11] = tested on: C57BL/6 mice, pressure overload by transverse aortic constriction; assay: In vivo cardiac hemodynamics by pressure-volume analysis, TAC mice; set-up: species or system mouse; settings: 3 wk TAC, compared with sildenafil results
Method: as §1
Transthoracic two-dimensional guided M-mode echocardiography was performed in non-anesthetized mice. Measurements were done using an echocardiography system, the SEQUOIA C256 (Siemens, Munich, Del.) with the 15 MHz linear-array transducer. Intact heart hemodynamic analysis was performed as described^90. These studies employed a four-electrode pressure-volume catheter (model SPR-839, Millar Instruments) placed through the left ventricular apex in the open chest anesthetized animal and positioned along the longitudinal axis to record chamber volume by impedance and pressure by micromanometry.
All hemodynamic data were recorded using custom developed software, digitizing signals at 2 KHz. End-diastolic and end-systolic volumes were the average of volumes measured during isovolumic contraction and relaxation, respectively. ESP was the pressure at maximal chamber elastance (P/V ratio)^1. EDP was the diastolic pressure at the lower right hand corner of the pressure-volume loop. Cardiac output was determined from a perivascular flow probe (Transonics, Ithica, N.Y.) placed around the thoracic aorta. Ea was equal to the ratio of end-systolic pressure divided by stroke volume. The volume catheter signal was calibrated for both gain and offset. Gain was determined by setting the catheter-derived cardiac output (equal to pressure-volume loop width times heart rate) to that obtained from the calibrated flow probe value. Offset was determined using the hypertonic saline method Ventricular power was equal to the instantaneous product of pressure times flow, and the peak power was divided by EDV to obtain the power index PMXI^79. […] The slope of this relation Ees was normalized by heart mass and expressed per gm heart mass. Msw was derived from the linear relation between stroke work and EDV from the same set of variably loaded cardiac cycles used to derive Eesn, and is another load-independent assessment of systolic contractile function^4. Tau was obtained from the model: P=Po+ae^−t/□ . . . fitting data during isovolumic relaxation. dP/dt was derived from a digital filter (5-point weighted slope). PFR/EDV was derived from the maximal first derivative of the volume signal during early diastole, divided by EDV.

[12] = tested on: C57bl6 mice, isoproterenol-induced hypertrophy; assay: Chronic isoproterenol infusion (osmotic pump) cardiac hypertrophy; type: in vivo, mouse; settings: 2 weeks
Method: Acute increases in cardiac chamber contractility were induced by isoproterenol infusion in control C57b16 mice. The increase in cardiac systolic function was assessed by in vivo pressure-volume relations (FIG. 11E), and is reflected by a widening of the loop and shift of the upper left corner to the left. […] This supports the myocyte effects at the intact heart level. Furthermore, if isoproterenol is infused chronically by means of an implanted osmotic mini-pump, the heart responds by increasing the cardiac mass (hypertrophy) and with some dilation. This is shown for a group of control C57b16 mice (FIGS. 12A and 12B).

[13] = inhibitor combined with isoproterenol

Compound: O=c1onc2cnc3ccccc3n12 [ODQ]
- blunting of ISO response by sildenafil when sGC is inhibited [1]: prevented

Compound: CC[C@H](C)[C@@H]1NC(=O)[C@H](CCCNC(=N)N)NC(=O)[C@H](CC(=O)O)NC(=O)[C@H](CCSC)NC(=O)[C@H](CCCNC(=N)N)NC(=O)CNC(=O)CNC(=O)[C@H](Cc2ccccc2)NC(=O)[C@@H](NC(=O)[C@H](CO)NC(=O)[C@H](CO)NC(=O)[C@H](CCCNC(=N)N)NC(=O)[C@H](CCCNC(=N)N)NC(=O)[C@H](CC(C)C)NC(=O)[C@@H](N)CO)CSSC[C@@H](C(=O)N[C@@H](CC(N)=O)C(=O)N[C@@H](CO)C(=O)N[C@@H](Cc2ccccc2)C(=O)N[C@@H](CCCNC(=N)N)C(=O)N[C@@H](Cc2ccc(O)cc2)C(=O)O)NC(=O)CNC(=O)[C@H](CC(C)C)NC(=O)CNC(=O)[C@H](CO)NC(=O)[C@H](CCC(N)=O)NC(=O)[C@H](C)NC(=O)CNC1=O [ANP, atrial natriuretic peptide]
- whole myocardial cGMP [2]: marked rise in myocardial cGMP
- isoproterenol-stimulated contractility in intact heart [3]: had no effect on the ISO response in the intact heart

Compound: CN1CC(=O)N2[C@H](c3ccc4c(c3)OCO4)c3[nH]c4ccccc4c3C[C@@H]2C1=O [tadalafil]
- time of peak plasma concentration post-dose ([4]; in vivo, po): two
- apparent oral clearance (CL/F) [4]: 2.48 L/h
- mean elimination half-life [4]: about 17.5 h
- proportion of total cGMP-esterase activity attributable to PDE5 ([5]; 3 week TAC hearts): ~60%
- percent of total cGMP-esterase activity blocked by co-incubation ([5]; sham control hearts (baseline)): approximately 30%
- enhancement of PKG-1 activity ([6]; basal conditions, inhibitor alone): ~10%
- rise in PKG-1 activity [6, 13]: 50% and 70%
- rise in PKG-1 activity over ISO alone [6, 13]: 30%

Compound: CCCc1nn(C)c2c(NCc3ccc(OC)c(Cl)c3)nc(COCC(=O)O)nc12 [EMD 360527, [7-(3-Chloro-4-methoxy-benzylamino)-1-methyl-3-propyl-1H-pyrazolo[4,3-d]pyrimidin-5-ylmethoxy]-acetic acid]
- total myocardial cGMP ([2]; TAC hearts, chronic co-treatment): slight decline
- whole myocardial cGMP [2]: negligible effect
- fetal gene expression [7]: reversed the TAC-induced rise in fetal gene expression
- TAC-induced hypertrophy and chamber remodeling [8]: yielded identical findings
- TAC-induced hypertrophy and chamber remodeling ([8]; listed as EMD360527): prevented the development of both cardiac hypertrophy and accompanying chamber dilation and remodeling
- IC50 [9]: ~10 nM
- IC50 [10]: 1000 nM
- cardiac function by pressure-volume analysis [11]: near identical physiologic results
- development of cardiac hypertrophy [12]: markedly inhibited the development of cardiac hypertrophy
